Data as given in ChEMBL document CHEMBL1201862, “PubChem BioAssay data set” (2004).
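Results reflect a 48-hour exposure of cells in 96-well plates to compound at five concentrations. Here, GI50 denotes the concentration required for 50% inhibition of growth.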 Active and inactive are the calls of the source. No stated cut-off is given here; in the data, active = GI50 up to about 1.1 µM and inactive = higher.

Columns and labels:
Experiment in all cases: DTP human tumour cell line panel, 48 h
A549 = tested on: A549
ACHN = tested on: ACHN
CCRF-CEM = tested on: CCRF-CEM
COLO 205 = tested on: COLO 205
DU-145 = tested on: DU-145
HCC 2998 = tested on: HCC 2998
HCT-116 = tested on: HCT-116
KM12 = tested on: KM12
M14 = tested on: M14
MDA-MB-435 = tested on: MDA-MB-435
NCI-H226 = tested on: NCI-H226
NCI-H460 = tested on: NCI-H460
RPMI-8226 = tested on: RPMI-8226
SF-268 = tested on: SF-268
SK-MEL-28 = tested on: SK-MEL-28
SK-OV-3 = tested on: SK-OV-3
SR = tested on: SR
SW-620 = tested on: SW-620
LOX IMVI = tested on: LOX IMVI

Measured: GI50

C/C(=C\CBr)CCC(Br)C(C)(C)Br (centres undefined)
inactive: A549 > 100 µM | ACHN > 100 µM | CCRF-CEM > 100 µM | COLO 205 > 100 µM | DU-145 > 100 µM | HCC 2998 > 100 µM | HCT-116 > 100 µM | KM12 > 100 µM | M14 > 100 µM | MDA-MB-435 > 100 µM | NCI-H226 > 100 µM | NCI-H460 > 100 µM | RPMI-8226 > 100 µM | SF-268 > 100 µM | SK-MEL-28 > 100 µM | SK-OV-3 > 100 µM | SR > 100 µM | SW-620 > 100 µM

O=C1NC(N2CCCCC2)=N/C1=C\c1cccs1
inactive: A549 > 100 µM | ACHN > 100 µM | CCRF-CEM > 100 µM | COLO 205 > 100 µM | DU-145 > 100 µM | HCC 2998 > 100 µM | HCT-116 > 100 µM | KM12 > 100 µM | LOX IMVI > 100 µM | M14 > 100 µM | MDA-MB-435 > 100 µM | NCI-H226 > 100 µM | RPMI-8226 > 100 µM | SF-268 > 100 µM | SK-MEL-28 > 100 µM | SK-OV-3 > 100 µM | SR > 100 µM | SW-620 > 100 µM

COC(=O)C(I(OS(=O)(=O)c1ccc(C)cc1)c1ccccc1)=P(c1ccccc1)(c1ccccc1)c1ccccc1
inactive: A549 24.5 µM | ACHN 16.6 µM | CCRF-CEM 10.3 µM | COLO 205 3.13 µM | DU-145 15.9 µM | HCC 2998 19.2 µM | HCT-116 16.3 µM | KM12 19.5 µM | M14 15.8 µM | MDA-MB-435 18 µM | NCI-H226 8.39 µM | NCI-H460 29.9 µM | RPMI-8226 5.04 µM | SF-268 17.5 µM | SK-MEL-28 15.1 µM | SK-OV-3 25.1 µM | SR 19.4 µM

Cc1ccc(C(=O)O)c(/C=C2\Cc3ccc(C)cc3C2=O)c1
inactive: A549 91.2 µM | ACHN 55.2 µM | CCRF-CEM 51.3 µM | COLO 205 51.4 µM | DU-145 79.8 µM | HCC 2998 38.9 µM | HCT-116 44.2 µM | KM12 61.4 µM | LOX IMVI 33.3 µM | M14 > 100 µM | MDA-MB-435 38 µM | NCI-H226 28.2 µM | NCI-H460 56.4 µM | RPMI-8226 19.5 µM | SF-268 41 µM | SK-MEL-28 78.9 µM | SR 32.5 µM | SW-620 > 100 µM

CC(=O)Nc1oc(C)c(C)c1S(=O)(=O)c1ccc(Cl)cc1
inactive: A549 52 µM | ACHN 46.2 µM | CCRF-CEM 79.8 µM | COLO 205 72.8 µM | DU-145 85.3 µM | HCC 2998 41.3 µM | HCT-116 55 µM | KM12 39.4 µM | M14 63.8 µM | MDA-MB-435 33.5 µM | NCI-H226 34.4 µM | NCI-H460 35.7 µM | RPMI-8226 35.6 µM | SF-268 33.7 µM | SK-MEL-28 95.3 µM | SK-OV-3 52.5 µM | SR 51.5 µM | SW-620 > 100 µM

COC(=O)[C@@H]1Cc2ccc(OC)c(c2)OCCC(=O)N1
inactive: A549 > 100 µM | ACHN > 100 µM | CCRF-CEM > 100 µM | COLO 205 > 100 µM | DU-145 > 100 µM | HCC 2998 > 100 µM | HCT-116 > 100 µM | KM12 > 100 µM | M14 > 100 µM | MDA-MB-435 > 100 µM | NCI-H226 > 100 µM | RPMI-8226 > 100 µM | SF-268 > 100 µM | SK-MEL-28 > 100 µM | SK-OV-3 > 100 µM | SR 32.6 µM | SW-620 > 100 µM

COc1ccc(-c2cc(-c3ccco3)c(C#N)c(=S)n2C2OC(COC(C)=O)C(OC(C)=O)C(OC(C)=O)C2OC(C)=O)cc1 (centres undefined)
inactive: A549 5.9 µM | ACHN 6.82 µM | COLO 205 4.36 µM | DU-145 7.94 µM | HCC 2998 14.9 µM | HCT-116 6.79 µM | KM12 11.9 µM | LOX IMVI 3.64 µM | M14 5.27 µM | MDA-MB-435 7.71 µM | NCI-H226 5.7 µM | NCI-H460 5.11 µM | RPMI-8226 2.96 µM | SF-268 8.45 µM | SK-MEL-28 3.3 µM | SK-OV-3 13.8 µM | SR > 10 µM | SW-620 6.19 µM
